Results: patent publication US20130130903A1, “Suppression of Foliar and Soilborne Pathogens” (priority 2003, published 2013)
Where two headings read alike, the source gives them in different places.

What was measured:
R. solani = settings: cited from earlier work
stripe rust = test: Glyphosate amount and timing on glyphosate resistant Macon wheat: stripe rust and yield; format: in vivo, Puccinia striiformis
Text: This example describes the effect of glyphosate treatment of glyphosate resistant wheat in varying amounts and at different times. Eight different treatment regimens were applied to the hard white spring wheat variety Macon, which is susceptible to stripe rust. Macon plots were planted at the Palouse Conservation Farm near Pullman, Washington and subjected to one of the following eight treatment regimens:
Treatment 1: no herbicide treatment and manual weed control;
Treatment 2: a 16 oz./A (0.50 kg/ha of active ingredient) application of glyphosate, one-half the recommended rate of 32 oz./A (1.0 kg/ha of active ingredient), was made ‘on-label’ to glyphosate resistant wheat at the 4-5 leaf stage.
Treatment 3: a first application of glyphosate at one-half (0.50 kg/ha of active ingredient) the recommended density of 1.0 kg/ha was made to glyphosate resistant wheat at the 4-5 leaf stage according to the manufacturer's instructions. A second application of 16 oz./A (0.50 kg/ha of active ingredient) glyphosate was made once moderate stripe rust symptoms appeared (42 days following the first glyphosate application).
Treatment 4: a 16 oz./A (0.50 kg/ha of active ingredient) application of glyphosate, one-half the recommended rate, was made to glyphosate resistant wheat once moderate stripe rust symptoms appeared.
Treatment 5: a 32 oz./A (1.0 kg/ha of active ingredient) application of glyphosate, the recommended full rate, was made ‘on-label’ to glyphosate resistant wheat at the 4-5 leaf stage.
Treatment 6: a first application of 32 oz./A. (1.0 kg/ha of active ingredient) glyphosate, the recommended full rate, was made ‘on-label’ to glyphosate resistant wheat at the 4-5 leaf stage and a second application of 32 oz./A. (1.0 kg/ha) glyphosate was made once moderate stripe rust symptoms appeared.
Treatment 7: a 32 oz./A. (1.0 kg/ha of active ingredient) application of glyphosate was made to glyphosate resistant wheat once moderate stripe rust symptoms appeared. Treatment 8: a 48 oz./A. ([…] of active ingredient) application of glyphosate, 1.5 times the recommended rate, was made to glyphosate resistant plants at the 4-5 leaf stage.
With reference to Table 7, stripe rust severity is characterized with two numerical indications. The first is a number characterizing the stripe rust severity on a scale of 0-9, with 0 corresponding to no infection and 9 being a high level of spore activity and infection. The second number is a percentage of the plants in the plot infected with the rating described by the first number.

[1] = tested on: Rhizoctonia solani isolate AG-8 and Gaeumannomyces graminis var. tritici (averaged over all fungal inoculation treatments); test: Field yield of spring wheat after herbicide treatment, averaged over all fungal inoculation treatments; format: in vivo; settings: for Yield: glyphosate (ROUNDUP 0.63 kg/ha) on glyphosate res. wheat, Buctril/Harmony on sensitive wheat, 4-5 leaf stage
Text: This example describes the response of glyphosate resistant and glyphosate sensitive spring wheat to inoculation with soil pathogens as judged by wheat yield. Inoculation simulates the green-bridge effect of dying weeds and volunteer in a standing wheat crop. The soil pathogens assessed were: Rhizoctonia solani isolate AG-8 and Gaeumannomyces graminis var. tritici. These pathogenic strains are prevalent in the Pacific Northwest and were isolated from the region. They have been maintained by the Department of Plant Pathology and USDA researchers at Washington State University.
Near isogenic lines (glyphosate resistant and glyphosate sensitive) of Westbred 926 and Bobwhite were seeded using a no-till drill at three different sites (Lind, Davenport and Pullman, Wash.).
To introduce the root pathogens into the wheat seed for distribution into the field, oat seeds, autoclaved and sterilized, were inoculated for each soilborne pathogen using isolated pathogen cultures. Oat seeds that were non-inoculated, but sterilized and autoclaved, served as a control. Following two weeks of pathogen growth, the inoculated oat seeds were dried down for 2 days and screened for potential contamination. To establish a green-bridge, a mixture of 15% barley and 20% oat inoculum seeds (by weight) were planted using a small plot no-till drill. One week after planting the introduced green-bridge, the wheat isolines were planted in rows adjacent to the barley green-bridge rows in a randomized, split-plot design, replicated in five randomized blocks. Inoculum treatment served as the main plot, and response to herbicides as the subplot factor.
This example describes the effect of herbicide treatment on spring wheat, averaged over all disease treatments, planted as described in Example 1. The appropriate herbicide was applied to each trial once the plants reached the 4-5 leaf stage with a custom built hand-pulled sprayer outfitted with a boom with a length of 16 feet with spray shields on the side to minimize drift. In this manner, an entire plot was treated at once with the appropriate herbicide rate. Entries that were resistant to glyphosate were treated with ROUNDUP® brand herbicide (0.63 kg/ha), available from Monsanto, St. Louis, Mo. Herbicide sensitive and resistant entries were treated with a common broadleaf herbicide treatment (Buctril/Harmony) or a no-spray control. Introduced green-bridge barley and any other weeds were manually removed 7-10 days after spray treatment to simulate the time required for ROUNDUP to take effect and maintained weed-free conditions to provide an accurate comparison to commercial weed management strategies needed to assess potential herbicide/disease interactions.

[2] = 16 oz (52 days) and 16 oz (94 days)
[3] = 32 oz (52 days) and 32 oz (94 days)
[4] = off-label applications made 94 days after planting

O=C(O)CNCP(=O)(O)O [glyphosate, N-phosphonomethylglycine]
grain yields of glyphosate-sensitive barley under R. solani (R. solani; glyphosate applied in the fall or three weeks prior to planting): no significant yield depression
grain yields of glyphosate-sensitive barley under R. solani (R. solani; glyphosate applied three days before planting): significantly reduced grain yields
Stripe Rust (96 days after planting), percentage of the plants in the plot infected with the rating (stripe rust; 16 oz (52 days)): 10%
Stripe Rust (102 days after planting), percentage of the plants in the plot infected with the rating (stripe rust; 16 oz (52 days)): 30%
Stripe Rust (102 days after planting), severity on a scale of 0-9 (stripe rust; 16 oz (52 days)): 7-8
Stripe Rust (106 days after planting), percentage of the plants in the plot infected with the rating (stripe rust; 16 oz (52 days)): 30%
Stripe Rust (106 days after planting), severity on a scale of 0-9 (stripe rust; 16 oz (52 days)): 8
Yield (stripe rust; 16 oz (52 days)): 60.2 bu/A
Stripe Rust (96 days after planting), percentage of the plants in the plot infected with the rating (stripe rust; [2]): 10%
Stripe Rust (96 days after planting), severity on a scale of 0-9 (stripe rust; [2]): 4-5
Stripe Rust (102 days after planting), percentage of the plants in the plot infected with the rating (stripe rust; [2]): 10%
Stripe Rust (102 days after planting), severity on a scale of 0-9 (stripe rust; [2]): 0-1
Stripe Rust (106 days after planting), percentage of the plants in the plot infected with the rating (stripe rust; [2]): 10%
Stripe Rust (106 days after planting), severity on a scale of 0-9 (stripe rust; [2]): 2
Yield (stripe rust; [2]): 68.7 bu/A
Stripe Rust (96 days after planting), severity on a scale of 0-9 (stripe rust; 16 oz (52 days), 0 = no infection, 9 = high level of spore activity and infection): 7-8
Stripe Rust (96 days after planting), percentage of the plants in the plot infected with the rating (stripe rust; 16 oz (94 days)): 20%
Stripe Rust (102 days after planting), percentage of the plants in the plot infected with the rating (stripe rust; 16 oz (94 days)): 20%
Stripe Rust (102 days after planting), severity on a scale of 0-9 (stripe rust; 16 oz (94 days)): 2-3
Stripe Rust (106 days after planting), percentage of the plants in the plot infected with the rating (stripe rust; 16 oz (94 days)): 15%
Stripe Rust (106 days after planting), severity on a scale of 0-9 (stripe rust; 16 oz (94 days)): 2-3
Yield (stripe rust; 16 oz (94 days)): 52.7 bu/A
Stripe Rust (96 days after planting), severity on a scale of 0-9 (stripe rust; 16 oz (94 days), once moderate stripe rust symptoms appeared): 7-8
Stripe Rust (96 days after planting), percentage of the plants in the plot infected with the rating (stripe rust; 32 oz (52 days)): 20%
Stripe Rust (96 days after planting), severity on a scale of 0-9 (stripe rust; 32 oz (52 days)): 7-8
Stripe Rust (102 days after planting), percentage of the plants in the plot infected with the rating (stripe rust; 32 oz (52 days)): 40%
Stripe Rust (102 days after planting), severity on a scale of 0-9 (stripe rust; 32 oz (52 days)): 7-8
Stripe Rust (106 days after planting), percentage of the plants in the plot infected with the rating (stripe rust; 32 oz (52 days)): 60%
Stripe Rust (106 days after planting), severity on a scale of 0-9 (stripe rust; 32 oz (52 days)): 8
Yield (stripe rust; 32 oz (52 days)): 80.3 bu/A
Stripe Rust (96 days after planting), percentage of the plants in the plot infected with the rating (stripe rust; [3]): 5%
Stripe Rust (96 days after planting), severity on a scale of 0-9 (stripe rust; [3]): 9
Stripe Rust (102 days after planting), percentage of the plants in the plot infected with the rating (stripe rust; [3]): 5%
Stripe Rust (102 days after planting), severity on a scale of 0-9 (stripe rust; [3]): 1-2
Stripe Rust (106 days after planting), percentage of the plants in the plot infected with the rating (stripe rust; [3]): 10%
Stripe Rust (106 days after planting), severity on a scale of 0-9 (stripe rust; [3]): 3
Yield (stripe rust; [3]): 74.5 bu/A
Stripe Rust (96 days after planting), percentage of the plants in the plot infected with the rating (stripe rust; 32 oz (94 days)): 25%
Stripe Rust (102 days after planting), percentage of the plants in the plot infected with the rating (stripe rust; 32 oz (94 days)): 20%
Stripe Rust (102 days after planting), severity on a scale of 0-9 (stripe rust; 32 oz (94 days)): 0-1
Stripe Rust (106 days after planting), percentage of the plants in the plot infected with the rating (stripe rust; 32 oz (94 days)): 5%
Stripe Rust (106 days after planting), severity on a scale of 0-9 (stripe rust; 32 oz (94 days)): 2
Yield (stripe rust; 32 oz (94 days)): 64.5 bu/A
Stripe Rust (96 days after planting), severity on a scale of 0-9 (stripe rust; 32 oz (94 days), once moderate stripe rust symptoms appeared): 7-8
Stripe Rust (96 days after planting), percentage of the plants in the plot infected with the rating (stripe rust; 48 oz (52 days)): 2%
Stripe Rust (96 days after planting), severity on a scale of 0-9 (stripe rust; 48 oz (52 days)): 7-8
Stripe Rust (102 days after planting), percentage of the plants in the plot infected with the rating (stripe rust; 48 oz (52 days)): 10%
Stripe Rust (102 days after planting), severity on a scale of 0-9 (stripe rust; 48 oz (52 days)): 4-5
Stripe Rust (106 days after planting), percentage of the plants in the plot infected with the rating (stripe rust; 48 oz (52 days)): 20%
Stripe Rust (106 days after planting), severity on a scale of 0-9 (stripe rust; 48 oz (52 days)): 8
Yield (stripe rust; 48 oz (52 days)): 67.8 bu/A
control of stripe rust compared to the 16 oz./A and 32 oz./A application (stripe rust; 48 oz./A rate applied at the 4-5 leaf stage): did the best job of controlling stripe rust
effect on plants moderately infected with stripe rust (stripe rust; [4]): a curative effect was observed
formation of necrotic stripes on the leaves, time following glyphosate application (stripe rust; [4]): second day
control of stripe rust in the trial (stripe rust; treatments 3 and 6, split-treatments (52 and 94 days after planting)): best control of stripe rust
Yield ([1]; Davenport): 28.9 bu/acre
Yield ([1]; Lind): 14.2 bu/acre
Yield ([1]; Pullman): 56.5 bu/acre
grain produced versus glyphosate sensitive NILs treated with Buctril/Harmony Extra or the no spray control ([1]; RoundUp Ready spring wheat, regardless of disease treatment or location): significantly (P=0.001) more grain
yield of glyphosate resistant wheat versus other treatments ([1]; Table 2, each trial): higher yields in each trial
